Experimental findings from US20210068395A1, “METHODS OF APPLYING ONE OR MORE CERTAIN HETEROARYL-1,2,4-TRIAZOLE AND HETEROARYL-TETRAZOLE COMPOUNDS TO CONTROL DAMAGE ON PLANTS, PROPAGATION MATERIAL THEREOF, AND PLANT DERIVED PRODUCTS” (SYNGENTA CROP PROTECTION AG, priority 2018, published 2021) are described below.

Common to all, as to type: in vivo
In assay [1] the test system is Myzus persicae (Green Peach Aphid). The assay is described as follows: Myzus persicae systemic activity. The settings on record: 144 h, test rate 24 ppm, roots of pea seedlings in test solution, 6 days. The procedure: Roots of pea seedlings infested with an aphid population of mixed ages were placed directly into aqueous test solutions prepared from 10,000 DMSO stock solutions. The samples were assessed for mortality 6 days after placing seedlings into test solutions.

Assay [2] relates to Spodoptera littoralis (Egyptian Cotton Leaf Worm). The assay is described as follows: Spodoptera littoralis feeding/contact activity. The note with it: foliar, 72 h, application rate 200 ppm, L1 larvae on cotton leaf discs, 3 days after infestation, read-out: control in at least one of the three categories (mortality or growth inhibition or anti-feeding). The procedure: Cotton leaf discs were placed onto agar in 24-well microtiter plates and sprayed with aqueous test solutions prepared from 10,000 ppm DMSO stock solutions. After drying the leaf discs were infested with five L1 larvae. The samples were assessed for mortality, anti-feeding and growth inhibition 3 days after infestation.

Assay [3] concerns Chrysodeixis includens (Soybean Looper). Nature of the assay: Chrysodeixis includens larvicide, feeding/contact. The note with it: 120 h, test rate 50 ppm, L2 larvae on soybean leaves, 5 days after infestation, read-out: control in at least one of the two categories (mortality or growth inhibition). As to the method:
Soybean plants were treated in a spray chamber, cut off and placed into petri dishes containing wet filter paper. 1 d after application leaves were infested with 5 L2 larvae and covered with a fabric filter and plastic lids. 5 days after infestation the samples were assessed for mortality and growth inhibition.

The subject of assay [4] is Chilo suppressalis (Striped Stem Borer). Nature of the assay: Chilo suppressalis larvicide, feeding/contact. The settings on record: 120 h, test rate 200 ppm, L2 larvae on sprayed rice plants, 5 days after application. As to the method: Rice plants were treated in a spray chamber, cut off and placed into petri dishes containing wet filter paper. 10 L2 larvae were infested and covered up with a cotton filter and a lid. 5 days after application samples were assessed for mortality.

Assay [5] relates to Aedes aegypti (Yellow Fever Mosquito). Nature of the assay: whole plant or invertebrate. The settings on record: test rate 200 ppm, adult females, mortality assessed at 24 and 48 hours. As to the method: Test solutions, at an application rate of 200 ppm in ethanol, were applied to 12 well tissue culture plates. Once the deposits were dry, five, two to five day old adult female Aedes aegypti were added to each well, and sustained with a 10% sucrose solution in a cotton wool plug. Assessment of knockdown was made one hour after introduction, and mortality was assessed at 24 and 48 hours after introduction.

Assay [6] concerns Anopheles stephensi (Indian Malaria Mosquito). Nature of the assay: Anopheles stephensi adult contact on treated plates. The note with it: test rate 200 ppm, adult females, mortality assessed at 24 and 48 hours. As to the method:
Test solutions, at an application rate of 200 ppm in ethanol, were applied to 12 well tissue culture plates. Once the deposits were dry, five, two to five day old adult female Anopheles stephensi were added to each well, and sustained with a 10% sucrose solution in a cotton wool plug. Assessment of knockdown was made one hour after introduction, and mortality was assessed at 24 and 48 hours after introduction.

Assay [7] deals with German cockroaches, Blattella germanica. Nature of the assay: Cockroach N3 contact bioassay. The note with it: 72 h, test rate 100 ppm, third nymphal stage, sprayed, 3 days. As to the method: Ten third nymphal stage German cockroaches, Blattella germanica, were placed in a 250 ml plastic drinking cup along with ca. 1 g of compressed rabbit food, and retained with a section of netting. Experimental compounds are diluted to 1000 ppm w/v in acetone, then subsequently to 100 ppm w/v in a 0.1% Tween solution in de-ionised water. 1 ml of the experimental solution is sprayed with a Potter tower directly through the retaining net onto the cockroach nymphs. A damp cotton wool ball is placed on top of the retaining net, and the cups held at 24° C. and ambient humidity. Assessment of mortality is made three days after application.

The test system of assay [8] is house flies, Musca domestica. The assay is described as follows: House fly adult contact bioassay. The note with it: 72 h, test rate 100 ppm, adult females, sprayed, 3 days. The procedure: Ten adult female house flies, Musca domestica, are placed in a 250 ml plastic drinking cup along with a sugar cube, and retained with a section of netting. Experimental compounds are diluted to 1000 ppm w/v in acetone, then subsequently to 100 ppm w/v in a 0.1% Tween solution in de-ionised water. 1 ml of the experimental solution is sprayed with a Potter tower directly through the retaining net onto the adult house flies. A damp cotton wool ball is placed on top of the retaining net, and the cups held at 24° C. and ambient humidity. Assessment of mortality is made three days after application.

Assay [9] has as its system German cockroaches, Blattella germanica. The assay is described as follows: Cockroach bait bioassay. The note with it: 72 h, test rate 1000 ppm in peanut butter bait, adults, 3 days. The procedure:
The experimental compound is diluted in acetone to 1000 ppm w/v. 1 ml of this solution is added to 1 g of smooth peanut butter in a 15 ml glass vial and thoroughly mixed. This mixture is left in a fume cupboard for 24 hours until all the acetone has evaporated. It is then mixed again to ensure a homogeneous distribution of the experimental compound with a concentration of 1000 ppm w/w.
Ten adult male and ten adult female German cockroaches, Blattella germanica, are placed in a plastic arena approximately 20 cm in diameter. Also placed in each arena are a simple harbourage constructed from concertinaed card, and a water source. After the cockroaches have acclimatised for 24 hours the glass vial containing 1 g of the treated bait is introduced.
Assessment of cockroach mortality is made 3 days after bait introduction.

As a reminder, the mortality is the share of the test organisms that died. Low readings indicate more survivors, high ones fewer survivors. Consider `CC(c1ncnn1-c1ncccn1)N(C)C(=O)c1cc(C(F)(F)F)cc(C(F)(F)F)c1` (centres unmarked) [Compound 1], for which the mortality at 24 ppm in assay [1] was ≥ 80%. Also, in [2], the percent control (mortality, anti-feedant effect or growth inhibition) at 200 ppm was ≥ 80%. Moreover, in assay [3], the percent control (mortality or growth inhibition) at 50 ppm was ≥ 80%. Further, in [4], the mortality at 200 ppm is ≥ 80%.

As for `CC(c1ncnn1-c1ncccn1)N(CC1CC1)C(=O)c1cc(C(F)(F)F)cc(C(F)(F)F)c1` (centres unmarked) [Compound 3], the mortality at 24 ppm in assay [1] was ≥ 80%. Besides, the percent control (mortality, anti-feedant effect or growth inhibition) at 200 ppm in assay [2] was ≥ 80%. The percent control (mortality or growth inhibition) at 50 ppm in assay [3] is ≥ 80%. The results for the mortality at 200 ppm in assay [4], in assay [5] and in [6] were ≥ 80%, ≥ 60% and ≥ 60%, respectively. Further, the mortality at 100 ppm in [7] and in assay [8] was ≥ 80% each time. Further, the mortality at 1000 ppm in assay [9] was ≥ 80%.

`CC(NC(=O)c1cc(C(F)(F)F)cc(C(F)(F)F)c1)c1ncnn1-c1ncccn1` (centres unmarked) [Compound 4]: the percent control (mortality, anti-feedant effect or growth inhibition) at 200 ppm in assay [2] is ≥ 80%. Also, the mortality at 100 ppm in [7] and in assay [8] was ≥ 80% each time. The mortality at 1000 ppm in assay [9] was ≥ 80%.
